# Laboratory results reported in patent US12472166B2, “Inhibition of mycobacterial type VII secretion” (priority 2019, dated 2025).
# Columns and labels:
# [1] = system: resistant M. tuberculosis strains; assay type: cell-based
# [2] = system: M. tuberculosis overexpressing ethA; assay type: cell-based
Compound,concentration in presence of which resistant strains were grown [1] [µM],increase compared to the susceptible WT strain [1] [fold],increased susceptibility as compared to the parent WT strain [2],activity in the ethA overexpression strain compared to WT M. tuberculosis [2]
COc1ccc(-c2nsc(SCC(=O)NC3CCCC3)n2)cc1 [Compound I-12],80,64,at least 4 fold,–
O=C(CSc1nc(-c2ccccc2)no1)NC1CCCC1 [Compound I-28],–,–,–,increased activity in the ethA overexpression strain
O=C(CSc1nc(-c2ccccc2)no1)NC1CCCC1 [Compound I-31],–,–,–,did not show an increased activity
